In brackets after ≈: the same amount, converted by molar mass. Read-outs that look alike come from different tables or passages of the source.
Key:
Format in all cases: cell-based
[1] = tested on: human umbilical-vein endothelial cells (HUVEC); assay: Cell Proliferation Assay (CPA) Test, HUVEC, MTT; details: Homo sapiens, M199 (2+) medium, read-out: CPA (IC50 μg/ml)
Method in brief: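 HUVEC (7th subculture) seeded at 5×10^4 cells/ml in M-199 with 20% FCS, 10 ng/ml b-FGF and 10 ng/ml EGF, grown 24 h at 37 °C, 5% CO2. Compounds added from 1 mg/ml or 0.1 mg/ml samples in 5% DMSO-PBS(−), renewed with medium after 24 h, then cultured 48 h more. Read-out by MTT with 4 h incubation and SDS/HCl stop.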

[2] = tested on: human umbilical-vein endothelial cells (HUVEC); assay: Cell Migration Assay (CMA) Test, HUVEC (% relative to control); details: Homo sapiens, HUVEC, 24 hours, 60% or less = remarkable inhibition, read-out: CMA (% relative to control); for activity at 1 µg/mL: 1 μg/ml; for activity at 10 µg/mL: 10 μg/ml
Method in brief: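 Confluent 7th-subculture HUVEC monolayers scraped with razor blade, then given M199 (2+) plus 40 or 4 μl of 1 mg/ml sample (in 5% DMSO-PBS) per 4.0 ml medium for 24 h at 37 °C. Methanol-fixed, Giemsa-stained; newly migrated cells counted microscopically in 1 mm×1 mm blocks, expressed versus M199 (2+) control.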

[3] = tested on: human umbilical-vein endothelial cells (HUVEC); assay: Tube Formation Assay (TFA) Test, HUVEC in collagen gel; details: Homo sapiens, HUVEC, 20 hours, 40% or less judged remarkable, read-out: TFA (inhibition rate, %); for inhibition at 1 µg/mL: 1 μg/ml; for inhibition at 10 µg/mL: 10 μg/ml
Method in brief: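 Inhibition rate (%) of tube formation is computed from tube lengths against control (+) and control (-), measured after 20 h at 37 °C in M-199 with 20% FCS, 30 ng/ml b-FGF and 0.1 μM PMA. Samples were applied to HUVEC on collagen and covered by a second collagen layer (double-layer gel).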

Row | Compound | IC50 [1] [µg/mL] | activity at 1 µg/mL [2] [%] | activity at 10 µg/mL [2] [%] | inhibition at 1 µg/mL ([3]; 20 h) [%] | inhibition at 10 µg/mL ([3]; 20 h) [%] | inhibition at 1 µg/mL [3] [%] | inhibition at 10 µg/mL [3] [%]
1 | CNC(=O)O[C@@H]1OC=C(C(=O)OC)[C@H]2C[C@@H]3OC3(COC)C12 (stereo in doubt) [compound 49, (1S,4aS,6S,7R,7aR)-6,7-epoxy-7-(methoxymethyl)-1-(methylcarbamoyloxy)-1,4a,5,6,7,7a-hexahydrocyclopenta [c] pyrane-4-carboxylic acid methylester] | > 100 | 102 | 104 | 21.2 | 12.8 | – | –
2 | CNC(=O)O[C@@H]1OC=C(C(=O)OC/C=C(\C)CCC=C(C)C)[C@H]2C[C@@H]3O[C@]3(C)[C@H]12 [compound 6, (1S,4aS,6S,7R,7aR)-6,7-epoxy-1,4a,5,6,7,7a-hexahydro-7-methyl-1-(methylcarbamoyloxy) cyclopenta [c]-pyrane-4-carboxylic acid geranyl ester] | > 100 | 106 | 105 | 24.2 | 8.7 | – | –
3 | CN(Cc1cnc2nc(N)nc(N)c2n1)c1ccc(C(=O)N[C@@H](CCC(=O)O)C(=O)O)cc1 [MTX, Methotrexate, reference compound] | 0.04 (≈ 0.088 µM) | 102 | 103 | – | – | 37.5 | 42.6
4 | COC(=O)C1=CO[C@@H](OC(=O)Nc2ccccc2)[C@@H]2[C@@H]1C[C@@H]1O[C@]21C [compound 35, (1S,4aS,6S,7R,7aR)-6,7-epoxy-1,4a,5,6,7,7a-hexahydro-7-methyl-1-(phenylcarbamoyloxy) cyclopenta [c] pyrane-4-carboxylic acid methylester] | > 100 | 84.4 | 67.2 | -3.3 | 20 | – | –
5 | CCNC(=O)O[C@@H]1OC=C(C(=O)OC)[C@H]2C[C@@H]3O[C@]3(C)[C@H]12 [compound 30, (1S,4aS,6S,7R,7aR)-6,7-epoxy-1-(ethylcarbamoyloxy)-1,4a,5,6,7,7a-hexahydro-7-methylcyclopenta [c] pyrane-4-carboxylic acid methylester] | > 100 | 90 | 105 | 16.5 | 36 | – | –
6 | CNC(=O)O[C@@H]1OC=C(C(=O)OC)[C@H]2C[C@@H]3O[C@]3(C)[C@H]12 [compound 3, (1S,4aS,6S,7R,7aR)-6,7-epoxy-1,4a,5,6,7,7a-hexahydro-1-methylcarbamoyloxy-7-methylcyclopenta [c] pyrane-4-carboxylic acid methylester] | > 100 | 68.5 | 57.3 | 33 | 33.5 | – | –
7 | CNC(=O)O[C@@H]1OC=C(C(=O)OC2CCCCC2)[C@H]2C[C@@H]3O[C@]3(C)[C@H]12 [compound 14, (1S,4aS,6S,7R,7aR)-6,7-epoxy-1,4a,5,6,7,7a-hexahydro-7-methyl-1-(methylcarbamoyloxy) cyclopenta [c]-pyrane-4-carboxylic acid cyclohexylester] | > 100 | 99.4 | 102 | 38.2 | 48.7 | – | –
8 | COC(=O)C1=CO[C@H](OC(=O)NC(=O)CCl)[C@@H]2[C@@H]1C[C@@H]1O[C@]21C [compound 40, (1R,4aS,6S,7R,7aR)-1-(chloroacetylcarbamoyloxy)-6,7-epoxy-1,4a,5,6,7,7a-hexahydro-7-methylcyclopenta [c] pyrane-4-carboxylic acid methylester] | 58.1 (≈ 168 µM) | 77.3 | 66.8 | 32.8 | 23.8 | – | –
9 | COC(=O)C1=CO[C@@H](OC(N)=O)[C@@H]2[C@@H]1C[C@@H]1O[C@]21C [compound 29, (1S,4aS,6S,7R,7aR)-1-(carbamoyloxy)-6,7-epoxy-1,4a,5,6,7,7a-hexahydro-7-methylcyclopenta [c] pyrane-4-carboxylic acid methylester] | > 100 | 89.9 | 88 | 17.7 | 29.3 | – | –
10 | CNC(=O)O[C@@H]1OC=C(C(=O)NC2CCCCC2)[C@H]2C[C@@H]3O[C@]3(C)[C@H]12 [compound 21, (1S,4aS,6S,7R,7aR)-6,7-epoxy-1,4a,5,6,7,7a-hexahydro-7-methyl-1-(methylcarbamoyloxy) cyclopenta [c]-pyrane-4-carboxylic acid cyclohexylamide] | > 100 | 105 | 101 | 29.5 | 23.2 | – | –
11 | O=c1[nH]cc(F)c(=O)[nH]1 [5-FU, 5-fluorouracil, reference compound] | 3.5 (≈ 26.9 µM) | 102 | 92.9 | – | – | 42.4 | 52.3
12 | CNC(=O)OC1OC=C(C(=O)N2CCN(C)CC2)C2CC3OC3(C)C12 [compound 20, (1S,4aS,6S,7R,7aR)-6,7-epoxy-1,4a,5,6,7,7a-hexahydro-7-methyl-1-(methylcarbamoyloxy) cyclopenta [c]-pyrane-4-carboxylic acid 4-methylpiperazylamide] | > 100 | 97.4 | 89.5 | 34.3 | 19.6 | – | –
13 | COC(=O)C1=CO[C@@H](OC(=O)NC(=O)CCl)[C@@H]2[C@@H]1C[C@@H]1O[C@]21C [compound 39, (1S,4aS,6S,7R,7aR)-1-(chloroacetylcarbamoyloxy)-6,7-epoxy-1,4a,5,6,7,7a-hexahydro-7-methylcyclopenta [c] pyrane-4-carboxylic acid methylester] | 55 (≈ 159 µM) | 110 | 94.6 | 37.6 | 39.7 | – | –
14 | CNC(=O)O[C@@H]1OC=C(C(=O)OC)[C@H]2C[C@H]3O[C@@]3(C)C12 (stereo in doubt) [Compound 57, (1S,4aS,6R,7S,7aR)-6,7-epoxy-7-methyl-1-(methylcarbamoyloxy)-1,4a,5,6,7,7a-hexahydrocyclopenta [c] pyrane-4-carboxylic acid methylester] | > 100 | 96 | 93 | 17.7 | 13.5 | – | –
15 | CCNC(=O)C1=CO[C@@H](OC(=O)NC)[C@@H]2[C@@H]1C[C@@H]1O[C@]21C [compound 16, (1S,4aS,6S,7R,7aR)-6,7-epoxy-1,4a,5,6,7,7a-hexahydro-7-methyl-1-(methylcarbamoyloxy) cyclopenta [c]-pyrane-4-carboxylic acid ethylamide] | > 100 | 98.1 | 102 | 30.7 | 21.6 | – | –
16 | CNC(=O)OC1OC=C(C(=O)N2CCCCC2)C2CC3OC3(C)C12 [compound 26, (1S,4aS,6S,7R,7aR)-6,7-epoxy-1,4a,5,6,7,7a-hexahydro-7-methyl-1-(methylcarbamoyloxy) cyclopenta [c]-pyrane-4-carboxylic acid piperidylamide] | > 100 | 84 | 104 | 41.2 | 30.8 | – | –
17 | COC(=O)C1=CO[C@H](OC(=O)NC(=O)c2ccccc2)C2[C@@H]1C[C@@H]1O[C@]21C (stereo in doubt) [compound 42, (1R,4aS,6S,7R,7aR)-1-(benzoylcarbamoyloxy)-6,7-epoxy-1,4a,5,6,7,7a-hexahydro-7-methylcyclopenta [c] pyrane-4-carboxylic acid methylester] | > 100 | 90.4 | 70.6 | 12.5 | 18.7 | – | –
18 | CNC(=O)OC1OC=C(C(=O)OCc2ccco2)C2CC3OC3(C)C12 [compound 10, (1S,4aS,6S,7R,7aR)-6,7-epoxy-1,4a,5,6,7,7a-hexahydro-7-methyl-1-(methylcarbamoyloxy) cyclopenta [c]-pyrane-4-carboxy-lic acid furfurylester] | 93.3 (≈ 267 µM) | 101 | 103 | 28.6 | 27.7 | – | –
19 | CNC(=O)O[C@@H]1OC=C(C(=O)OC)[C@H]2C[C@@H]3O[C@]3(CF)[C@@H]12 [compound 50, (1S,4aS,6S,7R,7aR)-6,7-epoxy-7-(fluoromethyl)-1-(methylcarbamoloxy)-1,4a,5,6,7,7a-hexahydrocyclopenta [c] pyrane-4-carboxylic acid methylester] | > 100 | 87.9 | 63.5 | 9.5 | 23.2 | – | –

From patent US6225478A, “Iridoid derivatives and neovascularization inhibitors containing the same as active ingredient” (Tsumura & Co., priority 1999, dated 2001)
